Data on 23 compounds can be found in ChEMBL document CHEMBL4715908, “Design, synthesis, characterization, and anticancer activity of a novel series of O-substituted chalcone derivatives” (Bioorg Med Chem Lett, 2021).

Assay [1] deals with CCRF-CEM. Nature of the assay: Cytotoxicity against human CCRF-CEM cells assessed as reduction in cell viability after 72 hrs by RRA assay. In kind it is functional, cell-based.
The test system of assay [2] is DU-145. Description: Cytotoxicity against human DU-145 cells assessed as reduction in cell viability after 72 hrs by SRB assay. The format is functional, cell-based. The following applies: DU-145, 72 h. (In SRB staining, fixed cells bind dye roughly in proportion to their protein.)
Assay [3] relates to THP-1. Description: Cytotoxicity against human THP-1 cells assessed as reduction in cell viability after 72 hrs by SRB assay. In kind it is functional, cell-based. As to conditions: THP-1, 72 h.
Assay [4] deals with MCF7. Nature of the assay: Cytotoxicity against human MCF7 cells assessed as reduction in cell viability after 72 hrs by SRB assay. In kind it is functional, cell-based. The following applies: MCF7, 72 h.
For assay [5], the system named is HL-60. Description: Cytotoxicity against human HL-60 cells assessed as reduction in cell viability after 72 hrs by SRB assay. The following applies: HL-60, 72 h. The format is functional, cell-based.
The subject of assay [6] is HepG2. Description: Cytotoxicity against human HepG2 cells assessed as reduction in cell viability after 72 hrs by SRB assay. The format is functional, cell-based. The following applies: HepG2, 72 h.
Assay [7] can be described thus: Resistant index, ratio of IC50 for cytotoxicity against human HCT-116 p53-/- cells to IC50 for cytotoxicity against human HCT-116 p53+/+ cells.
A short description of assay [8]: Resistant index, ratio of IC50 for cytotoxicity against human U87MG.deltaEGFR cells to IC50 for cytotoxicity against human U87 cells. The format is functional.
Assay [9] concerns HCT-116. Nature of the assay: Cytotoxicity against human HCT-116 p53-/- cells assessed as reduction in cell viability after 72 hrs by RRA assay. The following applies: HCT-116, 72 h. In kind it is functional, cell-based.
Assay [10] is described as follows: Cytotoxicity against mouse AML12 cells assessed as reduction in cell viability after 72 hrs by RRA assay. In kind it is cell-based. The following applies: AML12, 72 h.
The test system of assay [11] is U-87 MG. Description: Cytotoxicity against human U87 cells assessed as reduction in cell viability after 72 hrs by RRA assay. The format is functional, cell-based, U-87MG ATCC.
Assay [12] can be described thus: Resistant index, ratio of IC50 for cytotoxicity against human MDA-MB-231/BCRP cells to IC50 for cytotoxicity against human MDA-MB-231 pcDNA cells. In kind it is functional.
Assay [13] has as its system ADR5000 cell line. Description: Cytotoxicity against human CEM/ADR5000 cells assessed as reduction in cell viability after 72 hrs by RRA assay. In kind it is functional, cell-based. The following applies: ADR5000, 72 h.
Assay [14] in a line: Resistant index, ratio of IC50 for cytotoxicity against human CEM/ADR5000 cells to IC50 for cytotoxicity against human CCRF-CEM cells. In kind it is functional.
Assay [15] has as its system HCT-116. Description: Cytotoxicity against human HCT-116 p53+/+ cells assessed as reduction in cell viability after 72 hrs by RRA assay. The following applies: HCT-116, 72 h. In kind it is functional, cell-based.
The test system of assay [16] is MDA-MB-231. Description: Cytotoxicity against human MDA-MB-231 pcDNA cells assessed as reduction in cell viability after 72 hrs by RRA assay. In kind it is functional, cell-based. The following applies: MDA-MB-231, 72 h.
Assay [17] can be described thus: Cytotoxicity against human MDA-MB-231/BCRP cells assessed as reduction in cell viability after 72 hrs by RRA assay. In kind it is functional, cell-based.
A short description of assay [18]: Selectivity index, ratio of IC50 for cytotoxicity against mouse AML12 cells to IC50 for cytotoxicity against human HepG2 cells.
A short description of assay [19]: Cytotoxicity against human U87.deltaEGFR cells assessed as reduction in cell viability after 72 hrs by RRA assay. In kind it is functional, cell-based. As to conditions: U87MG.deltaEGFR.
Assay [20] has as its system HepG2. Nature of the assay: Cytotoxicity against human HepG2 cells assessed as reduction in cell viability after 72 hrs by RRA assay. The following applies: HepG2, 72 h. In kind it is functional, cell-based.
The nature of assay [21]: Resistant index, ratio of IC50 for cytotoxicity against human HCT-116 p53+/+ cells to IC50 for cytotoxicity against human HCT-116 p53-/- cells. The format is functional.

Usually IC50 stands for the point on the concentration scale where inhibition reaches its midpoint. Regarding `C=CCOc1ccc(/C=C/C(=O)c2ccc(OCC=C(C)C)c(CC=C)c2)cc1OC`, the IC50 in assay [1] was more than 50 µM.

Regarding `C=CCOc1ccc(/C=C/C(=O)c2ccccc2C)cc1OC`, the 50% inhibitory concentration (IC50) in [2] was determined as 5.21 µM; in [3], 4.76 µM; in assay [4], 10.3 µM; in assay [5] it was 7.9 µM; in assay [6], 10.1 µM.

Take `C#CCOc1ccc(/C=C/C(=O)c2cccc(Br)c2)cc1OC`: the “Ratio IC50” value in [7] worked out at 0.66; in [8] it was 1.61; in assay [12] it was 0.88; in assay [14], 0.15; in assay [18], 1.24. For the same compound, the half-maximal inhibitory concentration (IC50) stood at 1900 nM in assay [9]; 12.5 µM in assay [10]; 2590 nM in assay [11]; 2280 nM in assay [13]; 15.2 µM in assay [1]; 2900 nM in assay [15]. The IC50 in [16] turned out to be 3.5 µM; in assay [17] it was 3090 nM; in assay [19], 4160 nM; in assay [20] it was 10.1 µM.

On to `C#CCOc1ccc(/C=C/C(=O)c2cccc(OC)c2)cc1OC`, for which the “Ratio IC50” value in assay [7] was 0.53; in [8], 0.91; in assay [12] it was 0.09; in assay [14], 0.2; in assay [18] it was 2.05. The IC50 in assay [9] was 1010 nM; in assay [10] it was 11.4 µM; in assay [11], 1460 nM; in [13], 1100 nM; in assay [1], 5.59 µM; in assay [15] it was 1920 nM. Moreover, the IC50 in [16] worked out at 13.8 µM; in [17], 1230 nM; in assay [19] it was 1330 nM; in assay [20], 5.54 µM.

Regarding `C=CCOc1ccc(C=O)cc1OC`, the “Ratio IC50” value came out at 1.39 in assay [7]; 0.93 in assay [8]; 0.5 in [12]; 0.25 in assay [14]; 1.46 in [18]. Moreover, the IC50 in assay [9] came out at 8020 nM; in [10], 15.3 µM; in assay [11] it was 7500 nM; in assay [13], 3480 nM; in assay [1], 14 µM; in [15], 5770 nM. For the same compound, the IC50 in [16] was 15 µM; in [17], 7530 nM; in assay [19], 6970 nM; in assay [20], 10.5 µM.

As for `C#CCOc1ccc(/C=C/C(=O)c2ccc(C(C)C)cc2)cc1OC`, the “Ratio IC50” value in assay [8] is recorded as 0.75; in [12], 0.72; in [14] it was 0.23; in [18], 1.57; in assay [21], 0.85. For the same compound, the IC50 in [9] came to 3130 nM; in assay [10], 9.91 µM; in assay [11], 2840 nM; in [13], 2720 nM; in [1] it was 11.8 µM; in [15] it was 3700 nM. In addition, the IC50 in assay [16] turned out to be 4.07 µM; in assay [17], 2930 nM; in [19] it was 2120 nM; in assay [20], 6.31 µM.

Consider `C#CCOc1ccc(/C=C/C(=O)c2ccc(-n3ccnc3)cc2)cc1OC`, for which the “Ratio IC50” value in assay [7] is listed as 0.86; in [8] it was 0.77; in assay [12], 0.86; in [14], 0.07; in [18], 2.36. In addition, the IC50 came out at 670 nM in assay [9]; 12.7 µM in [10]; 1410 nM in assay [11]; 1000 nM in assay [13]; 15 µM in assay [1]; 780 nM in assay [15]. The IC50 was determined as 2.03 µM in assay [16], 1740 nM in [17], 1080 nM in assay [19] and 5.39 µM in assay [20].

For `C#CCOc1ccc(/C=C/C(=O)c2cccn2C)cc1OC`, in [1], the IC50 was more than 50 µM.

As for `C#CCOc1ccc(C(C)=O)cc1CC=C`, in assay [1], the IC50 amounted to 38.2 µM.

Turning to `C#CCOc1ccc(/C=C/C(=O)c2ccccc2C)cc1OC`, the “Ratio IC50” value is 0.64 in assay [7]; 0.58 in assay [8]; 0.07 in assay [12]; 0.13 in assay [14]; 3.11 in assay [18]. Also, the IC50 in [9] is 1060 nM; in [10], 8.2 µM; in assay [11], 2100 nM; in assay [13] it was 920 nM; in assay [1], 6.95 µM; in assay [15], 1660 nM. The IC50 in [16] turned out to be 14.8 µM; in assay [17], 990 nM; in [19], 1210 nM; in assay [20] it was 2.64 µM.

With `C#CCOc1ccc(/C=C/C(=O)c2ccc(CC=C(C)C)cc2)cc1OC`, the IC50 in assay [1] was more than 50 µM.

As for `C#CCOc1ccc(/C=C/C(=O)c2cccc(C)c2)cc1OC`, the “Ratio IC50” value in assay [7] was found to be 0.77; in assay [8] it was 1.09; in assay [12] it was 0.87; in assay [14] it was 0.16; in assay [18], 2.24. Further, the IC50 worked out at 1060 nM in assay [9]; 11.3 µM in assay [10]; 1800 nM in assay [11]; 1380 nM in assay [13]; 8.82 µM in [1]; 1380 nM in assay [15]. Besides, the IC50 in [16] amounted to 2.03 µM; in [17] it was 1770 nM; in assay [19] it was 1970 nM; in assay [20] it was 5.03 µM.

With `C#CCOc1ccc(C=O)cc1OC`, in assay [1], the IC50 was more than 50 µM.

With `C#CCOc1ccc(C(=O)/C=C/c2ccc(OCC=C)c(OC)c2)cc1CC=C`, the IC50 in assay [1] is more than 50 µM.

For `C=CCc1cc(C(C)=O)ccc1OCC=C(C)C`, the “Ratio IC50” value is 1.31 in assay [7]; 0.94 in assay [8]; 0.67 in assay [12]; 0.32 in assay [14]; 1.23 in assay [18]. Moreover, the IC50 in assay [9] is 14000 nM; in assay [10], 18.1 µM; in assay [11] it was 12900 nM; in assay [13] it was 5250 nM; in assay [1], 16.2 µM; in assay [15], 10600 nM. Further, the IC50 in assay [16] turned out to be 17.9 µM; in assay [17] it was 11900 nM; in assay [19] it was 12200 nM; in [20] it was 14.7 µM.

For the compound `C#CCOc1ccc(C(CC(=O)c2cccc(Br)c2)CC(=O)c2cccc(Br)c2)cc1OC`, the IC50 in assay [1] was more than 50 µM.

With `C#CCOc1ccc(/C=C/C(=O)c2ccc3c(c2)OCO3)cc1OC`, the IC50 in assay [1] was more than 50 µM.

Consider `COc1cccc2c1C(=O)c1c(O)c3c(c(O)c1C2=O)C[C@@](O)(C(=O)CO)C[C@@H]3O[C@H]1C[C@H](N)[C@H](O)[C@H](C)O1` [DOXORUBICIN], for which the half-inhibitory concentration (IC50) was 1780 nM in [9]; 52.9 µM in [10]; 260 nM in assay [11]; 0.02 µM in assay [1]; 0.13 µM in assay [16]; 790 nM in [17]. The IC50 in assay [19] was determined as 980 nM; in assay [20], 4.56 µM.

In the case of `C#CCOc1ccc(/C=C/C(=O)c2ccn(C)c2)cc1OC`, the IC50 in assay [1] was more than 50 µM.

`C#CCOc1ccc(C(CC(=O)c2cccc(C)c2)CC(=O)c2cccc(C)c2)cc1OC`: the IC50 in assay [1] was more than 50 µM.

Consider `C#CCOc1ccc(/C=C/C(=O)c2ccc(OC)c(OC)c2)cc1OC`, for which the “Ratio IC50” value is reported as 0.16 in assay [7]; 0.55 in assay [8]; 0.14 in assay [12]; 0.17 in assay [14]; 1.13 in assay [18]. In addition, the IC50 in assay [9] was 320 nM; in assay [10], 6.75 µM; in assay [11], 2860 nM; in assay [13] it was 1440 nM; in assay [1], 8.65 µM; in assay [15], 2010 nM. Further, the IC50 in [16] turned out to be 13.6 µM; in assay [17] it was 1890 nM; in [19], 1560 nM; in assay [20], 5.98 µM.

Consider `C#CCOc1ccc(/C=C/C(=O)c2ccc(C)cc2)cc1OC`, for which the half-maximal inhibitory concentration (IC50) in assay [1] was more than 50 µM.

With `C=CCOc1ccc(/C=C\C(=O)c2ccc(OCC=C(C)C)c(CC=C)c2)cc1OC`, the IC50 in assay [1] is more than 50 µM.
